Source: patent US20090286862A1, “Therapeutic agent for psychoneurotic disease” (ONO PHARMACEUTICAL CO., LTD., priority 2004, published 2009)
Counter-ions that a name gives are not always drawn.

Columns and labels:
Assay type in all cases: in vivo
olfactory bulbectomy rat [1] = assay: Score of emotional responses in olfactory bulbectomy rat (antidepressant effect); details: for score of emotional responses: seventh day, Male Wistar olfactory bulbectomy rat, 10 mg/kg orally twice a day for 7 days, control group 20.1±0.7, sham 3.7±3.4
Text: (§1) Antidepressant Effect and Antianxiety Effect for Olfactory Bulbectomy Rat
(§2) Male Wistar rat was anesthetized by injection of pentobarbital sodium, and fixed the head on a brain positioner. Either side of the bulbus olfactorius region of the head was drilled a hole with dental drill after the scalp incision. The either side of the bulbus olfactorius was aspirated and removed with an aspirator and then, the head was stitched up the scalp. The rat was defined as an olfactory bulbectomy animal. Alternatively, a sham surgery animal was anesthetized, fixed the brain, incised the scalp as well as the olfactory bulbectomy animal. The either side of the bulbus olfactorius region of the head was drilled a hole, and the either side of the bulbus olfactorius was not aspirated and removed and then, the head was stitched up the scalp. The olfactory bulbectomy animals were bred with isolated alone. In contrast, the sham surgery animals were not bred with isolated alone.
The olfactory bulbectomy animals were orally administered each the compound (I) of the present invention (10 mg/kg), the compound as positive control (desipramine hydrochloride (10 mg/kg); Wako Pure Chemical Industries, Ltd.), and control (0.5% methylcellulose suspension (5 mL/kg)) twice a day for 7 days. At that time, reactivity of emotional responses for 10 minutes for the first dosage one hour later of the first day and the seventh day was marked in accordance with an evaluation standard based on Gomi's method (Gomitami, other four people, Japanese pharmacologic magazine, 1983, Vol. 82, p 267-292).

olfactory bulbectomy rat [2] = assay: Elevated plus-maze in olfactory bulbectomy rat (antianxiety effect); details: for antianxiety effect: elevated plus-maze
Text: as §1, §2
Furthermore, each the olfactory bulbectomy animals and the sham surgery animals administered the compound (I) of the present invention, desipramine hydrochloride or control were located the center of platform toward the open arms on the elevated plus-maze for 10 minutes for the first dosage one hour later of the eighth day, and it was measured within a 5 minutes period. Each the time (second) in the open arms and the close arms were measured with video-imaging behavioral analysis equipment.

[3] = tested on: corticosterone elevation evoked by administration of sulprostone; assay: Inhibitory activity for corticosterone elevation evoked by administration of sulprostone; details: Male CD (SD) IGS rat; 10 mg/kg orally 1 hour before sulprostone 0.3 mg/kg subcutaneously; blood 1 hour after
Experimental: Inhibitory Activity for Corticosterone Elevation Evoked by Administration of Sulprostone
Male CD (SD) IGS rat were orally administrated EP3 antagonist [compound (I), compound (II) and compound (III) (respectively, 10 mg/5 mL/kg (0.5% methylcellulose suspension))], the control group were orally administrated 0.5% methylcellulose suspension (5 mL/kg). After being administered for an hour, all groups were administered sulprostone subcutaneously (0.3 mg/4 mL/kg). In contrast, non-evoked group were orally administrated 0.5% methylcellulose suspension (5 mL/kg), and after being administered for an hour, administered physiological saline subcutaneously (4 mL/kg). After 1 hour from subcutaneous administration, rats of all groups were collected blood. The withdrawn blood was added EDTA and aprotinin, centrifuged (12,000 rpm, 3 minutes), and measured the corticosterone concentration in the supernatant by using the method of EIA (Bachem Inc.) or ELISA (Endocrine Technologies Inc.).

| SMILES | effective daily dosage in olfactory bulbectomy rat (olfactory bulbectomy rat [1]; olfactory bulbectomy rat, oral) | score of emotional responses (olfactory bulbectomy rat [1]) | antidepressant effect (olfactory bulbectomy rat [1]; olfactory bulbectomy rat) | antianxiety effect (olfactory bulbectomy rat [2]) | corticosterone elevation (corticosterone concentration in blood) [3] | score of emotional responses (in words) (olfactory bulbectomy rat [1]; olfactory bulbectomy rat, 10 mg/kg orally twice a day, FIG. 2) | time in the open arms on the elevated plus-maze (olfactory bulbectomy rat [2]; eighth day, 1 hour after first dosage, 5 minutes period, FIG. 3) |
| --- | --- | --- | --- | --- | --- | --- | --- |
| CNCCCN1c2ccccc2CCc2ccccc21 [desipramine hydrochloride, reference compound] | 20 mg/kg per day | 7.5±3.4 | – | – | – | – | – |
| Cc1cc(C)cc([C@@H](CC(C)C)NC(=O)c2cc(COc3cc(F)ccc3F)ccc2CCC(=O)O)c1 [compound (II), 3-(2-(((1R)-3-methyl-1-(3,5-dimethylphenyl)butyl)carbamoyl)-4-(2,5-difluorophenoxymethyl)phenyl)propanoic acid] | – | – | equivalent effect | equivalent effect | inhibited | – | – |
| Cc1cc(C)cc([C@@H](CC(C)C)NC(=O)c2cc(COc3cc(C)ccc3C)ccc2CCC(=O)O)c1 [compound (III), 3-(2-(((1R)-3-methyl-1-(3,5-dimethylphenyl)butyl)carbamoyl)-4-(2,5-dimethylphenoxymethyl)phenyl)propanoic acid] | – | – | equivalent effect | equivalent effect | inhibited | – | – |
| Cc1cc(C)cc([C@@H](CC(C)C)NC(=O)c2cc(COc3cc(F)ccc3C)ccc2CCC(=O)O)c1 [compound (I), 3-(2-((((1R)-1-(3,5-dimethylphenyl)-3-methylbutyl)amino)carbonyl)-4-(5-fluoro-2-methylphenoxymethyl)phenyl)propanoic acid] | – | 6.2±4.6 | has antidepressant effect | has antianxiety effect | inhibited | decreased significantly | improved significantly |
